The target in assay [1] is Calcium/calmodulin-dependent protein kinase type II subunit beta (Homo sapiens) (UniProt Q13554). The experiment in a line: Inhibition of CAMK2B (unknown origin) assessed as residual activity at 100 nM by KINOMEscan analysis relative to control.
Assay [2] concerns the target T1, Hormonally up-regulated neu tumor-associated kinase (Homo sapiens) (UniProt P57058).
T1 sequence (whole entry): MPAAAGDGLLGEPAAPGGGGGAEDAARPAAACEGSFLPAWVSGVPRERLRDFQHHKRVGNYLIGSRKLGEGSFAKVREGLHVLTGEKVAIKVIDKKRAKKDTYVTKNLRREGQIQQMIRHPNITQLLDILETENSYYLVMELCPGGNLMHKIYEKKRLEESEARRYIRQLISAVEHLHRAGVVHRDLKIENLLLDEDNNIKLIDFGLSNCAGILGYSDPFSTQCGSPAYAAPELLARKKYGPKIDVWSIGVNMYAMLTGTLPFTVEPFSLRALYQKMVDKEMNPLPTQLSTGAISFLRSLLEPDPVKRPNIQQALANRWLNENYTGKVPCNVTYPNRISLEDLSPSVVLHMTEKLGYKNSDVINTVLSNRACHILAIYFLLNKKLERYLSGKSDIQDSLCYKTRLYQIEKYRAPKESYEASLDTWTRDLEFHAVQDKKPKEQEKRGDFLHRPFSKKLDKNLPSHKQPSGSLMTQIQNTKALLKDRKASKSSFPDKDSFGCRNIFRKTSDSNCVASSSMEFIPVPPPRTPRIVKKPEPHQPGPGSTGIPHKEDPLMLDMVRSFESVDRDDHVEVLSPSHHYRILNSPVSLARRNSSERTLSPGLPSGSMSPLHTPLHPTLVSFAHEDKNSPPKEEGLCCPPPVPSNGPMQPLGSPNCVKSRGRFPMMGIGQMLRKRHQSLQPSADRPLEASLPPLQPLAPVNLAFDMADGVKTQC
The experiment in a line: Inhibition of HUNK (unknown origin) assessed as residual activity at 100 nM by KINOMEscan analysis relative to control.

The target in assay [3] is Ribosomal protein S6 kinase alpha-5 (Homo sapiens) (UniProt O75582). The experiment in a line: Inhibition of C-terminal RPS6KA5 kinetic domain 2 (unknown origin) assessed as residual activity at 100 nM by KINOMEscan analysis relative to control.
Sequence of Ribosomal protein S6 kinase alpha-5 (Homo sapiens) (O75582 whole entry, looked up, the tested form may be a part): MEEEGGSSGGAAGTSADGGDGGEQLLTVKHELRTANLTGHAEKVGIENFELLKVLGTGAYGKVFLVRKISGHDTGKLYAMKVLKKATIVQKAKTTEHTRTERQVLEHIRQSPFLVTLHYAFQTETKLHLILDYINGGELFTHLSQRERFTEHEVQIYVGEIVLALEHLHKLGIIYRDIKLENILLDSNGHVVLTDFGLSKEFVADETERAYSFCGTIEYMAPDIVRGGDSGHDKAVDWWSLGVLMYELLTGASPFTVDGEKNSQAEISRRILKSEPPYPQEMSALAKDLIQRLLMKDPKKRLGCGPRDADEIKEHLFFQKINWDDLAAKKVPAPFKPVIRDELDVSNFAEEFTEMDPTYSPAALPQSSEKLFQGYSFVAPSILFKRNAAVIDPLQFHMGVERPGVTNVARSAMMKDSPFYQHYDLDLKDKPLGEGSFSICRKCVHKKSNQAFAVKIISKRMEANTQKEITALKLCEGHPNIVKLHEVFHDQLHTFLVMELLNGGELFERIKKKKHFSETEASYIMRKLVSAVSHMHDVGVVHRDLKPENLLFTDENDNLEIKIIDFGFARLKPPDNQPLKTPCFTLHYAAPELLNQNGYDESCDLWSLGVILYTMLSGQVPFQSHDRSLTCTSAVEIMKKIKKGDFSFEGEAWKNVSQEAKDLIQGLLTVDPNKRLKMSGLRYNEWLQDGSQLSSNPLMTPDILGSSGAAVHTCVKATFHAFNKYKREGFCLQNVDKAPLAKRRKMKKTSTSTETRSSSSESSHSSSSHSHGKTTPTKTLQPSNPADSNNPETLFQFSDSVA
The subject of assay [4] is Proto-oncogene tyrosine-protein kinase receptor Ret (Homo sapiens), P07949 [V804L]. The assay is described as follows: Inhibition of RET V804L mutant (unknown origin) assessed as residual activity at 100 nM by KINOMEscan analysis relative to control.
The target in assay [5] is Tyrosine-protein kinase JAK2 (Homo sapiens) (UniProt O60674). The experiment in a line: Inhibition of JAK2 JH1 catalytic domain (unknown origin) assessed as residual activity at 100 nM by KINOMEscan analysis relative to control.
Sequence of Tyrosine-protein kinase JAK2 (Homo sapiens) (O60674 whole entry, the tested form may be a part): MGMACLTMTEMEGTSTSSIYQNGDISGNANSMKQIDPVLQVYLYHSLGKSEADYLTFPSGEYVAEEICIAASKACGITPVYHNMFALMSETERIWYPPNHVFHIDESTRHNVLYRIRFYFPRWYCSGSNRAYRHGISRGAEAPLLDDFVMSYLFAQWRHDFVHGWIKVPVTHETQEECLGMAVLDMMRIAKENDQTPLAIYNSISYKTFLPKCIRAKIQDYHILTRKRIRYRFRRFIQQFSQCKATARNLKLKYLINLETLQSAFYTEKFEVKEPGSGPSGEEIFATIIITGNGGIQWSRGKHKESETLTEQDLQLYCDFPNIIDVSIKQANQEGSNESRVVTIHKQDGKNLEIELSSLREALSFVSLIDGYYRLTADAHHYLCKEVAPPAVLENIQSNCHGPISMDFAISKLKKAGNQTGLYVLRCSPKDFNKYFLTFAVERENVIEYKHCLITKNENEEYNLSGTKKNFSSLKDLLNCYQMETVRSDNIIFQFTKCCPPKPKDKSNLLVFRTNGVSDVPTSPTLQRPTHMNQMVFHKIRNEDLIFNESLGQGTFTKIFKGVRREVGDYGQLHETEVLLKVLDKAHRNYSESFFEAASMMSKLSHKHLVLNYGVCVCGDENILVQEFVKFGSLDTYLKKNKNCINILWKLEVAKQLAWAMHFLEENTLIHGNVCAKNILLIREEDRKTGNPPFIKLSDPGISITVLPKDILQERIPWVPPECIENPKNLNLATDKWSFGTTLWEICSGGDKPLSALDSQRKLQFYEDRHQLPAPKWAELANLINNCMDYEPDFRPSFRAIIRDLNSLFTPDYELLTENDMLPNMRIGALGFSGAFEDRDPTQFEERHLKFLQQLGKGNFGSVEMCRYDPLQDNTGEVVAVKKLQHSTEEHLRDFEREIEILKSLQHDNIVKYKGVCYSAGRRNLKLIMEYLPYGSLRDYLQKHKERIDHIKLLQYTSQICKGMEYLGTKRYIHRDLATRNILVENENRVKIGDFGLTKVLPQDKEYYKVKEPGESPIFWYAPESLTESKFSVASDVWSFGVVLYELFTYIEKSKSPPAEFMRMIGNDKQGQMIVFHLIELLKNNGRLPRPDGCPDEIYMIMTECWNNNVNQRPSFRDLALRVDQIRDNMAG
For assay [6], the target named is T2, Serine/threonine-protein kinase 36 (Homo sapiens) (UniProt Q9NRP7).
T2 sequence (whole entry): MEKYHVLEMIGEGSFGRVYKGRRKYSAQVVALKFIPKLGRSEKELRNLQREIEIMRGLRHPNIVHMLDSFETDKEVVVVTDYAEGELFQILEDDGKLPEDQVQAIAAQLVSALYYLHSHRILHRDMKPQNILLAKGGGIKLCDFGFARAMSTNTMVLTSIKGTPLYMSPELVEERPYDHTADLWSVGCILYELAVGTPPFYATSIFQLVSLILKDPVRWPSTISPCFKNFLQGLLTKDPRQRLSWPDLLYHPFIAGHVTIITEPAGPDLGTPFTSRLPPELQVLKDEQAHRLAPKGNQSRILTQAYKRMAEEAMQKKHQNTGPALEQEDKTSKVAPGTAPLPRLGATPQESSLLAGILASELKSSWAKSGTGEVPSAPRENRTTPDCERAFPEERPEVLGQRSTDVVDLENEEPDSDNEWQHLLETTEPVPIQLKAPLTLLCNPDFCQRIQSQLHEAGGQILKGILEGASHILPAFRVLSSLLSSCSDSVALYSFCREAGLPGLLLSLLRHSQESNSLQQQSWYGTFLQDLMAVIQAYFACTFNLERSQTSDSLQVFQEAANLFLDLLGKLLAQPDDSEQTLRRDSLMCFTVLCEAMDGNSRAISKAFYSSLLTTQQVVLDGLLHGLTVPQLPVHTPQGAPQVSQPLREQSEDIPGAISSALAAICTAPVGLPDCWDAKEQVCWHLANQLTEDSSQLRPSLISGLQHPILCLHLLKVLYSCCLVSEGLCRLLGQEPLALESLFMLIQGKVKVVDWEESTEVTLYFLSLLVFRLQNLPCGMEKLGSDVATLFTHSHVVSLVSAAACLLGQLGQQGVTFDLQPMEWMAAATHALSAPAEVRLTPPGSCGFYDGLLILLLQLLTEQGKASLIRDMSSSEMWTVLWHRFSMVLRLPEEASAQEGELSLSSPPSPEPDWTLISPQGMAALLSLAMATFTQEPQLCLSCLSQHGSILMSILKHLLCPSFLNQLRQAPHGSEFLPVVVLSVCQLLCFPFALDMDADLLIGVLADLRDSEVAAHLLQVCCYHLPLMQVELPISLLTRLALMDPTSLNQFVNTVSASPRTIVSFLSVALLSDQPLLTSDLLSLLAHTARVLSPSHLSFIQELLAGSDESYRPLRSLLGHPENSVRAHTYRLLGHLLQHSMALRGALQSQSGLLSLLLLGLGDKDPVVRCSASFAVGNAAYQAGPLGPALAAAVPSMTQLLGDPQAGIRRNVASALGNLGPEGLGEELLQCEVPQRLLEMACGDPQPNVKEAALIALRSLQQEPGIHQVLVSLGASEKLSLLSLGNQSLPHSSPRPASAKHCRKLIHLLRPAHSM
The assay is described as follows: Inhibition of STK36 (unknown origin) assessed as residual activity at 100 nM by KINOMEscan analysis relative to control.

Sequence of Calcium/calmodulin-dependent protein kinase type II subunit beta (Homo sapiens) (Q13554 whole entry): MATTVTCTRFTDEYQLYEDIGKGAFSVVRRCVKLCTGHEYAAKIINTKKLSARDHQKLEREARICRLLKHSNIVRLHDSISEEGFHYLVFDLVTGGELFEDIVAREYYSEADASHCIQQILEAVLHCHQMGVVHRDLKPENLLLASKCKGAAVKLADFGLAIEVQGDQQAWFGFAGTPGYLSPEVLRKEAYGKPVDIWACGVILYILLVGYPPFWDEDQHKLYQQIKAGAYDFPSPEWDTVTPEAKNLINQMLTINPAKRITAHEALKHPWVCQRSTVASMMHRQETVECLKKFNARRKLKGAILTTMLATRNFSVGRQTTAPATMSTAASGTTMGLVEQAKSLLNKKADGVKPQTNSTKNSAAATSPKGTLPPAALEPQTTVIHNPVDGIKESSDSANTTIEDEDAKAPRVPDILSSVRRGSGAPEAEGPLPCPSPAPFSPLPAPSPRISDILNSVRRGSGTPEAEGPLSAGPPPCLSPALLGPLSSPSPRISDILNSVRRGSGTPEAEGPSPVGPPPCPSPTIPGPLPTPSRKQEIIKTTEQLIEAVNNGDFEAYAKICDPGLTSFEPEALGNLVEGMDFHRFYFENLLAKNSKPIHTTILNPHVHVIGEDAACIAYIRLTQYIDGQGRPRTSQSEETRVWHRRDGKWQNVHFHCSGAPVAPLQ
Sequence of Proto-oncogene tyrosine-protein kinase receptor Ret (Homo sapiens), P07949 [V804L] (P07949 whole entry V804L, the tested form may be a part): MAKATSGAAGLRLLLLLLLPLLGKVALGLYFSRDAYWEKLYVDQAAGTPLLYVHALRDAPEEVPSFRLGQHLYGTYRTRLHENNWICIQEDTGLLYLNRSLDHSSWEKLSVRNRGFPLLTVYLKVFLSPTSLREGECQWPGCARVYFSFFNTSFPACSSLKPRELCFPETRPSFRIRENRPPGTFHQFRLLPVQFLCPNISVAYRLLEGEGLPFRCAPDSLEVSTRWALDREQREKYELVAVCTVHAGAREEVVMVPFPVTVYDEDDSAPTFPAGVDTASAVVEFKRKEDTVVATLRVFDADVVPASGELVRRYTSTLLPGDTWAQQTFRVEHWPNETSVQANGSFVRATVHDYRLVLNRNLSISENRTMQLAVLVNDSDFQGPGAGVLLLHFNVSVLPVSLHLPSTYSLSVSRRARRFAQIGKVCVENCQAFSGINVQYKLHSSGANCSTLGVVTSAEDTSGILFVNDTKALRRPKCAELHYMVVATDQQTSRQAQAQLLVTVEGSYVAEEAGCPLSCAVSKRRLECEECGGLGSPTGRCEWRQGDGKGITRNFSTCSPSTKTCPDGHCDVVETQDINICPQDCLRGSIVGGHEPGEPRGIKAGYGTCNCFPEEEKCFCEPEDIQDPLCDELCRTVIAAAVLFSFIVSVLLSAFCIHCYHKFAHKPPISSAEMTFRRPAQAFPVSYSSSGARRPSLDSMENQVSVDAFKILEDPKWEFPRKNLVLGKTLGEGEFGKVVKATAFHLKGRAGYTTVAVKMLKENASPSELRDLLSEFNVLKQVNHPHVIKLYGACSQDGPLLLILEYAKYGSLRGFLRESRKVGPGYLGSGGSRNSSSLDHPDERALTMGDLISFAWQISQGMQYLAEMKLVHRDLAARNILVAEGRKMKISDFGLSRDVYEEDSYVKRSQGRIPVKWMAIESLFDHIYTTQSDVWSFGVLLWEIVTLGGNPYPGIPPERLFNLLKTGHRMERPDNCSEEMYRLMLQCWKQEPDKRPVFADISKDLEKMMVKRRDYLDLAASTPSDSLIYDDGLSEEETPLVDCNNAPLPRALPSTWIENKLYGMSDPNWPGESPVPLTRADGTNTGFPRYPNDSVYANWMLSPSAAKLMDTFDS

Take `COc1cc2ncnc(N[C@H](C)c3cccc4ccccc34)c2cc1OC`: the Activity came out at 100% in assay [1]; 91% in assay [2]; 52% in assay [3]; 99% in assay [4]; 93% in assay [5]; 80% in assay [6].

The record behind these values is ChEMBL document CHEMBL5678818, “Discovery of potent SOS1 inhibitors that block RAS activation via disruption of the RAS-SOS1 interaction” (Proc Natl Acad Sci U S A, 2019).
